{
  "source": "ChEMBL document CHEMBL3259563",
  "about": "“The discovery of potent and selective non-steroidal glucocorticoid receptor modulators, suitable for inhalation” (Bioorg Med Chem Lett, 2014)",
  "key": {"[1]": {"biological_target": "T1, Mineralocorticoid receptor (Homo sapiens, UniProt P08235)", "T1 sequence (P08235 whole entry)": "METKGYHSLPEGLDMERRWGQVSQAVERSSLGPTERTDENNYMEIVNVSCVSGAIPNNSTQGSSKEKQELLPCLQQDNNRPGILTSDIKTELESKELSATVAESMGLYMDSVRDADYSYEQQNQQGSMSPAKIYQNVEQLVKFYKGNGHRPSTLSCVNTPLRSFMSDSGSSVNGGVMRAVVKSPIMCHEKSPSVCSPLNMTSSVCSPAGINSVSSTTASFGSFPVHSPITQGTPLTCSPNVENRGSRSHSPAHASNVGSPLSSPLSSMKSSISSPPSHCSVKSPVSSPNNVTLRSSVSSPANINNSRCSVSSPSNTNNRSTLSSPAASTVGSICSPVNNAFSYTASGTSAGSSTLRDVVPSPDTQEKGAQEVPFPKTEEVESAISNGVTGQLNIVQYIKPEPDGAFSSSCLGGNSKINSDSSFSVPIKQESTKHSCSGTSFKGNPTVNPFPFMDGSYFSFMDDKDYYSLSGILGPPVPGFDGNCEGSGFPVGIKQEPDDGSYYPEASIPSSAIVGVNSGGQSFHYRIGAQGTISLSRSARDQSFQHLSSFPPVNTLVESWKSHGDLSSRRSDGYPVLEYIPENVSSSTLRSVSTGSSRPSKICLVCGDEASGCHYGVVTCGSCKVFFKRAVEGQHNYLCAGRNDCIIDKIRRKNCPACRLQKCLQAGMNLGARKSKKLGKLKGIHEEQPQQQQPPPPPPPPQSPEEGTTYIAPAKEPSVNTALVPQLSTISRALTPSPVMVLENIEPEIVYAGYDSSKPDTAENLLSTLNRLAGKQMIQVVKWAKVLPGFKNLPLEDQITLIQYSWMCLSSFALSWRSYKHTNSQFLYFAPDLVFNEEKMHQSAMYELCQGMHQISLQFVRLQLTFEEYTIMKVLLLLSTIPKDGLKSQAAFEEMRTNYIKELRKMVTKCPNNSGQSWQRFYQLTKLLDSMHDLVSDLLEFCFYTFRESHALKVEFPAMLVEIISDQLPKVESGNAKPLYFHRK", "assay": "Binding affinity to mineralocorticoid receptor (unknown origin)"}, "[2]": {"assay": "Thermodynamic solubility of the crystalline compound in 0.1 M phosphate buffer at pH 7.4 at 25 degC after 24 hrs", "assay_type": "physicochemical", "conditions": "read-out: Therm_solubility"}, "[3]": {"assay": "Half life in iv dosed rat", "assay_type": "ADME, organism-based", "conditions": "in vivo"}, "[4]": {"biological_target": "T2, Glucocorticoid receptor (Homo sapiens, UniProt P04150)", "T2 sequence (P04150 whole entry)": "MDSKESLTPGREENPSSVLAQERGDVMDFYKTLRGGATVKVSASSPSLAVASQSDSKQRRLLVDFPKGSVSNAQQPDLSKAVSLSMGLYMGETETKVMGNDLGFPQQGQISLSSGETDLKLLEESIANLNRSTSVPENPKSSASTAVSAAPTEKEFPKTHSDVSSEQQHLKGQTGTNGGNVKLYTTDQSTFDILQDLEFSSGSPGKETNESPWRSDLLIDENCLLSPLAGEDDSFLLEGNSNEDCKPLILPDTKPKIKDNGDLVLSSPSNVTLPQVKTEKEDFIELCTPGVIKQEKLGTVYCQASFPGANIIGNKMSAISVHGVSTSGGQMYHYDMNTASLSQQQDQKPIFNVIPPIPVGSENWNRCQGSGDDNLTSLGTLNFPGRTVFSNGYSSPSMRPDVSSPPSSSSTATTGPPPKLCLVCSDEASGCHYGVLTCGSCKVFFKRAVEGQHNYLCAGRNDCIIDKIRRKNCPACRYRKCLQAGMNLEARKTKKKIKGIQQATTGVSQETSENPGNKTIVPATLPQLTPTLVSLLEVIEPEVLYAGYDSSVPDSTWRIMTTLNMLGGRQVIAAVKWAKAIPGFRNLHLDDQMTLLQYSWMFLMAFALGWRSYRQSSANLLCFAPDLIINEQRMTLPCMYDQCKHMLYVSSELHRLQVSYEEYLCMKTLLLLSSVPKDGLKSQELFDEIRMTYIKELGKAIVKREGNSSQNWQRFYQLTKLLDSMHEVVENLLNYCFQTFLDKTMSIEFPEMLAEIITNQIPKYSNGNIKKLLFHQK", "description": "Agonist activity at glucocorticoid receptor in human Chago K1 cells assessed as gene transrepression by Lac-Z reporter gene assay"}},
  "data": [
    {"smiles": "Cc1nn(C2CCCC2)c(C)c1S(=O)(=O)N[C@@H](C)CNc1cccc2c1cnn2-c1ccc(F)nc1", "values": [
      {"measurement": "IC50", "setting": "[1]", "value": "> 5000", "unit": "nM"},
      {"measurement": "solubility thermodynamic at 24 h", "setting": "[2]", "value": 1.5, "unit": "µM"},
      {"measurement": "half-life", "setting": "[3]", "value": 6.4, "unit": "h"},
      {"measurement": "IC50", "setting": "[4]", "value": 7.2, "unit": "nM"}
    ]}
  ]
}
